From EP3036295B1, “OFFSET PRINTING INKS COMPRISING AN ISOSORBIDE FATTY ACID ESTER SOLVENT” (OLEON NV, priority 2013, dated 2015)

Tests used:
[1] = test system: bacteria, fungi and yeasts; conditions: WO 2013/017257 A1; cited from earlier work
[2] = Kauri butanol value (solvent power), ASTM D1133; assay type: physicochemical; conditions: Table 2, comparison with conventional solvents
Excerpt: The "Kb value" is a measure of solvent power, and may be determined using the standardized test ASTM D1133. A high Kb value is an indication that the isosorbide ester is more capable in dissolving a wide range of resins of varying nature, and in higher concentrations, as compared to existing solvents used in offset printing inks. This is important as offset inks usually contain besides one or more pigments, approximately 40-65 wt. % of resin binders, for example rosin resins, maleic resins, hydrocarbon resins and alkyd resins, to ensure formation of a polymer film which binds the pigments or dyes together and provides resistance properties. Such resin binders are usually absent in inkjet printing inks. The offset printing ink may further comprise approximately 3 - 6 wt. % of additives, for example waxes, siccative agents and/or inhibitors. Without wanting to be bound by this theory, the applicants believe that this advantageous combination of properties, i.e. high wetting power of the pigments and high Kb value associated with good dissolution properties for the resin component present in the offset ink, must be attributed to the structure of the isosorbide moiety in the ester molecule. […]
In addition the inventors have observed that the Kb value may further be tuned by varying the nature of the carboxylic acid of the isosorbide ester and/or by varying the degree of esterification, in order to provide an ester with good solvent properties or an ester which functions much more as a diluent for the other components present in a formulation. […] Kauri resin is readily soluble in 1-butanol but is not soluble in many other solvents. […] Better solvents, for example toluene, may be added up to larger quantities before the solution becomes cloudy, and thus have a high Kauri butanol value. Weaker solvents like hexane may only be added in smaller quantities and will have a small Kauri butanol value. The Kauri butanol value (Kb value) is usually determined according to ASTM D1133 standardized test. […]

[3] = Surface tension, Du Noüy ring method; assay type: physicochemical
Description: The surface tension was measured using the Du Noüy ring method (http://www.kruss.de/en/theory/measurements/surface-tension/ring-method.html. The surface or interfacial tension is measured with the help of an optimally wettable ring suspended from a precision balance. A height-adjustable sample carrier is used to bring the liquid to be measured into contact with the probe. A force acts on the balance as soon as the probe touches the surface. If the length of the probe is known (circumference of ring or length of plate) the force measured can be used to calculate the interfacial or surface tension. A further requirement is that the probe must have a very high surface energy. This is why a platinum-iridium alloy is used for the ring and roughened platinum for the plate.
The liquid is raised until contact with the surface is registered. The sample is then lowered again so that the liquid film produced beneath the ring is stretched. As the film is stretched a maximum force is experienced; this is recorded in the measurement. At the maximum the force vector is exactly parallel to the direction of motion; at this moment the contact angle θ is 0°. In practice the distance is first increased until the area of maximum force has been passed through. The sample vessel containing the liquid is then moved back so that the maximum point is passed through a second time. The maximum force is only determined exactly on this return movement and used to calculate the tension. The calculation is made according to the following equation: σ = (Fmax −FV)/(L⋅cosθ) [formula] (σ =surface or interfacial tension; Fmax=maximum force; FV=weight of volume of liquid lifted; L=wetted length, θ=contact angle) The contact angle θ decreases as the extension increases and has the value 0° at the point of maximum force, this means that the term cos θ has the value 1.

Molecule | antimicrobial activity [1] | Kauri butanol ASTM D 1133 [2] | Surface tension Du Noüy ring method [3]
isosorbide dicaprylate | isosorbide itself, nor the dicaprylate, exhibit any such activity |  | 
Xylene |  | 90 | 29 mN/m
C=C(C)[C@H]1CC=C(C)CC1 [D-limonene] |  | 67 | 25 mN/m
isosorbide monocaprylate | responsible for the antimicrobial activity observed |  | 
O[C@@H]1CO[C@H]2[C@@H]1OC[C@@H]2O [isosorbide, Isosorbide] | isosorbide itself, nor the dicaprylate, exhibit any such activity |  | 
Cc1ccccc1 [Toluene] |  | 105 | 29 mN/m
